PubChem BioAssay AID1963842 (Molecular Pharmacology Branch, DTP, NCI, 2024)

Test system: 677734-321-R-J1-PDC complex spheroid viability
Experiment: Anticancer human tumor 677734-321-R-J1-PDC patient-derived soft tissue sarcoma cell line growth inhibition [POLQ]
Details: for IC50: curve of first compound; for viability, T/C: stronger effect = lower value
Procedure, shortened: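 Patient-derived tumour cells were co-cultured with HUVEC and mesenchymal stem cells as multicellular spheroids at 37 °C. They were treated with POLQ inhibitors (novobiocin, ART-558, RP6685) alone or combined with other agents. Top concentrations were at or near clinical Cmax (otherwise 10 microM; SN-38 at 1 microM), decreasing in half-log steps.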
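Also: spheroids exposed to compounds for one week.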
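For viability, T/C in this document: 100% = vehicle DMSO treated spheroids.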

COc1cc(C2c3cc4c(cc3C(OC3OC5COC(C)OC5C(O)C3O)C3COC(=O)C23)OCO4)cc(OC)c1O (configuration not stated) + Cc1cccc(N(C)C(=O)C2C(O)CCN2c2nc(C)cc(C(F)(F)F)c2C#N)c1
IC50 (second compound 0.0316 µM): 773 nM | IC50 (second compound 0.1 µM): 873 nM | IC50 (second compound 0.316 µM): 907 nM | IC50 (second compound 1 µM): 821 nM | IC50 (second compound 3.16 µM): 641 nM | IC50 (second compound 10 µM): 814 nM | viability, T/C (second compound 0.0316 µM, first compound 0.0316 µM): 99.4% | viability, T/C (second compound 0.0316 µM, first compound 0.1 µM): 101% | viability, T/C (second compound 0.0316 µM, first compound 0.316 µM): 60.8% | viability, T/C (second compound 0.0316 µM, first compound 1 µM): 47% | viability, T/C (second compound 0.0316 µM, first compound 3.16 µM): 26.6% | viability, T/C (second compound 0.0316 µM, first compound 10 µM): 10.5% | viability, T/C (second compound 0.1 µM, first compound 0.0316 µM): 103% | viability, T/C (second compound 0.1 µM, first compound 0.1 µM): 87.7% | viability, T/C (second compound 0.1 µM, first compound 0.316 µM): 63.3% | viability, T/C (second compound 0.1 µM, first compound 1 µM): 54.3% | viability, T/C (second compound 0.1 µM, first compound 3.16 µM): 23% | viability, T/C (second compound 0.1 µM, first compound 10 µM): 10.7% | viability, T/C (second compound 0.316 µM, first compound 0.0316 µM): 107% | viability, T/C (second compound 0.316 µM, first compound 0.1 µM): 90.6% | viability, T/C (second compound 0.316 µM, first compound 0.316 µM): 68.6% | viability, T/C (second compound 0.316 µM, first compound 1 µM): 52.4% | viability, T/C (second compound 0.316 µM, first compound 3.16 µM): 22.5% | viability, T/C (second compound 0.316 µM, first compound 10 µM): 8.11% | viability, T/C (second compound 1 µM, first compound 0.0316 µM): 114% | viability, T/C (second compound 1 µM, first compound 0.1 µM): 86.1% | viability, T/C (second compound 1 µM, first compound 0.316 µM): 62.6% | viability, T/C (second compound 1 µM, first compound 1 µM): 50.1% | viability, T/C (second compound 1 µM, first compound 3.16 µM): 23.7% | viability, T/C (second compound 1 µM, first compound 10 µM): 9.86% | viability, T/C (second compound 3.16 µM, first compound 0.0316 µM): 104% | viability, T/C (second compound 3.16 µM, first compound 0.1 µM): 88.7% | viability, T/C (second compound 3.16 µM, first compound 0.316 µM): 52% | viability, T/C (second compound 3.16 µM, first compound 1 µM): 50.7% | viability, T/C (second compound 3.16 µM, first compound 3.16 µM): 22% | viability, T/C (second compound 3.16 µM, first compound 10 µM): 10.1% | viability, T/C (second compound 10 µM, first compound 0.0316 µM): 107% | viability, T/C (second compound 10 µM, first compound 0.1 µM): 83.3% | viability, T/C (second compound 10 µM, first compound 0.316 µM): 65.8% | viability, T/C (second compound 10 µM, first compound 1 µM): 52.7% | viability, T/C (second compound 10 µM, first compound 3.16 µM): 21.5% | viability, T/C (second compound 10 µM, first compound 10 µM): 14.7%
